The results in this text go back to patent publication US20240408223A1 (REGENERON PHARMACEUTICALS, INC., priority 2017, published 2024).

The structures appear in SMILES notation. In brackets after ≈: the same amount, converted by molar mass. Read-outs that look alike come from different tables or passages of the source. *1 amine or outer side, *2 acyl side, *3 side chain or, on linkers, in order; H or OH if unused. Where a SMILES comes first, the peptide text is derived from it. [ ]: non-standard residue; d: D form. The star is where a group is joined. X4 = C[N+](C)(C)CCNC(=O)CCOCCOCCOCCOCCn1nnc2c1CCCCCC2OCC(=O)*; Dolaproine = CO[C@@H]([C@@H]1CCCN1)[C@@H](C)C(=O)O; Dil = CC[C@H](C)[C@H](NC)[C@@H](CC(=O)O)OC; PABC = O=C(OCc1ccc(N[*:1])cc1)[*:2]; DBCO = C1#Cc2ccccc2N(*)Cc2ccccc21; X1 = C[C@@H](N*)[C@@H](O)c1ccccc1; Cit = NC(=O)NCCC[C@H](N)C(=O)O; PEG4 = NCCOCCOCCOCCOCCC(=O)O; Suc = O=C(CCC(=O)[*:2])[*:1]; NMeV = CN[C@H](C(=O)O)C(C)C

The nature of data set [1]: Solubility test in water, LCMS against standard curve.
Method: The DMSO solution (1 mg/mL, 0.5 mL) was diluted with water (4.5 mL) to generate solution A (0.1 mg/mL, 5 mL, 0.5 mg). Solution A (0.1 mg/mL, 0.5 mL) was diluted with water (4.5 mL) to generate solution B (0.01 mg/mL, 5 mL, 0.05 mg). Solution B (0.01 mg/mL, 0.5 mL) was diluted with water (4.5 mL) to generate solution C (1 μg/mL, 5 mL, 5 μg). Solution C (1 μg/mL, 0.5 mL) was diluted with water (4.5 mL) to generate solution D (0.1 μg/mL, 5 mL, 0.5 μg). The testing sample (0.05 mg) was suspended in water (1 mL), and was sonicated for 5-30 min to dissolve the sample. If no clear solution was observed, the resulting suspension was centrifuged and the clear supernatant solution was collected for analysis. All the standard solutions A, B, C, D and sample solutions were tested using same method on the same LC-MS instrument. Solubility was assessed by LCMS and calculated based on a standard curve.
Another data set concerns the target Human liver Cathepsin B (Homo sapiens, UniProt P07858). Nature of the data set: Cathepsin B cleavage assay of linker-payloads.
Data set [2] can be described thus: pH stability in buffers, determined by LC-MS. It is filed as physicochemical. As for the experimental part: pH stability was assessed as follows. 0.1 mg of sample was dissolved into 0.2-0.3 mL of DMSO, and the resulting solution was added dropwise into different pH buffers (1 mL) while maintain clear solutions during testing time period. The samples were collected from several time points (e.g., over 72 hours), and pH stability was determined by LC-MS. pH buffer was prepared as follows: pH 8.0 sodium borate buffer: Add 9.534 g Sodium borate decahydrate, 1.461 g Sodium chloride, and 0.393 g DTPA to 900 mL distilled water, make sure all powers dissolve completely, then make final volume to 1 L by adding water. pH 7.4 sodium borate buffer: Add […], 9.534 g Sodium borate decahydrate, 1.461 g Sodium chloride, and 0.393 g DTPA to 900 mL distilled water, make sure all powers dissolve completely, then make final volume to 1 L by adding water. pH 5.0 succinate acid buffer: Add 10 mM succinate acid to 150 mL distilled water, and then change the pH to pH5.0 by adding 0.5M NaOH, then make final volume to 250 mL by adding water. pH 7.4 PBS buffer: commercially available. Stability was assessed at 72 hours by LCMS.

[3] abbreviates: Solubility (mg/mL), in water, Table 3.
Setting [4] is: Solubility (mg/mL), in water, Table 3-1.
Setting [5] is: pH7.4 and 8 buffer, RT, Table 3-1.
The mark [6] stands for this setting: pH7.4 or 8 buffer, room temperature, Table 3.

Method for Human liver Cathepsin B: For the assay, the linker-payload stock solution (10 mM of linker-payload in DMSO) was added into a solution of 100 mM NaOAc, 10 mM dithiothreitol, at pH5 to obtain a 50 μM substrate solution. […] The Cathepsin B and substrate solution was mixed with and without 10 mM of a Cathepsin B inhibitor (CA074; APE Bio, Cat #A1926), and incubated at 37° C. for 4 hours. Following the 4 hour incubation, acetic acid and then acetonitrile were added to stop the reaction. The quenched samples then underwent centrifugation at 14,000 rpm. Aliquots of the resultant supernatants were then diluted with equal volume of water and analyzed by LC/MS to determine the amount of payload released.

For the compound `CCCC1O[C@@H]2C[C@H]3[C@@H]4C[C@H](F)C5=CC(=O)C=C[C@]5(C)[C@@]4(F)[C@@H](O)C[C@]3(C)[C@]2(C(=O)COc2ccc(NC(=O)[C@H](CCCNC(N)=O)NC(=O)[C@@H](NC(=O)[C@@H](CCCCNC(=O)COC3CCCCCc4c3nnn4CCOCCOCCOCCOCCC(=O)NCCS(=O)(=O)O)NC(=O)CCOCCOCCOCCOCCNC(=O)CCC(=O)N3Cc4ccccc4C#Cc4ccccc43)C(C)C)cc2)O1` (some centres unmarked) [1k], the solubility in data set [1] (setting [3]) and in data set [1] (setting [4]) was > 1000 µg/mL throughout. Moreover, the “CapB cleavage rate (%) at 4 hrs” value on Human liver Cathepsin B (Table 1C) and on Human liver Cathepsin B (Table 1D) was 31.0% in each case. The “pH Stability” value in data set [2] (setting [5]) is “Y (stable in pH7.4 and 8 buffer at RT for more than 3 days)”; in data set [2] (setting [6]), “Y (stable in pH7.4 or 8 buffer at room temperature for more than 3 days)”.

`CCCC1O[C@@H]2C[C@H]3[C@@H]4C[C@H](F)C5=CC(=O)C=C[C@]5(C)[C@@]4(F)[C@@H](O)C[C@]3(C)[C@]2(C(=O)CNC(=O)OCc2ccc(NC(=O)[C@H](CCCNC(N)=O)NC(=O)[C@@H](NC(=O)CCOCCOCCOCCOCCNC(=O)CCC(=O)N3Cc4ccccc4C#Cc4ccccc43)C(C)C)cc2)O1` (some centres unmarked) [10a]: in data set [1] (setting [4]), the solubility (commonly how much of the substance goes into solution per volume) was determined as 20 µg/mL (≈ 14.2 µM). The “CapB cleavage rate (%) at 4 hrs” value on Human liver Cathepsin B (Table 1D) is 18.6%. The “pH Stability” value in data set [2] (setting [5]) is “Y (stable in pH7.4 and 8 buffer at RT for more than 3 days)”.

In the case of `CC(C)[C@H](NC(=O)[C@@H](CCCCNC(=O)COC1CCCCCc2c1nnn2CCOCCOCCOCCOCCC(=O)NCCS(=O)(=O)O)NC(=O)CCOCCOCCOCCOCCNC(=O)CCC(=O)N1Cc2ccccc2C#Cc2ccccc21)C(=O)N[C@@H](CCCNC(N)=O)C(=O)Nc1ccc(COC(=O)N[C@@H](CO)C(=O)Nc2ccc3c(c2)[C@@]2(C)CCC[C@](C)(C(=O)NC(=O)[C@@]4(C)CCC[C@]5(C)c6cc(O)ccc6CC[C@@H]45)[C@@H]2CC3)cc1` (some centres unmarked) [1q], in data set [1], the solubility stood at 170 µg/mL (≈ 75.7 µM). Further, the “CapB cleavage rate (%) at 4 hrs” value on Human liver Cathepsin B (Table 1D) is 30.4%. For the same compound, in data set [2] (setting [5]), the “pH Stability” value is “Y (stable in pH7.4 and 8 buffer at RT for more than 3 days)”.

Turning to `CCCC1O[C@@H]2C[C@H]3[C@@H]4C[C@H](F)C5=CC(=O)C=C[C@]5(C)[C@@]4(F)[C@@H](O)C[C@]3(C)[C@]2(C(=O)COc2ccc(NC(=O)OCc3ccc(NC(=O)[C@H](CCCNC(N)=O)NC(=O)[C@@H](NC(=O)[C@@H](CCCCNC(=O)COC4CCCCCc5c4nnn5CCOCCOCCOCCOCCC(=O)NCC[N+](C)(C)C)NC(=O)CCOCCOCCOCCOCCNC(=O)OC[C@@H]4[C@@H]5CCC#CCC[C@@H]54)C(C)C)cc3)cc2)O1` (some centres unmarked) [IIIe], in data set [1] (setting [4]), the solubility was > 10000 µg/mL. Moreover, in data set [2] (setting [5]), the “pH Stability” value is “Y (stable in pH7.4 and 8 buffer at RT for more than 3 days)”.

For `CC[C@H](C)[C@@H]([C@@H](CC(=O)N1CCC[C@H]1[C@H](OC)[C@@H](C)C(=O)N[C@H](C)[C@@H](O)c1ccccc1)OC)N(C)C(=O)[C@@H](NC(=O)[C@H](C(C)C)N(C)C(=O)OCc1ccc(NC(=O)[C@H](CCCNC(N)=O)NC(=O)[C@@H](NC(=O)[C@@H](CCCCNC(=O)COC2CCCCCc3c2nnn3CCOCCOCCOCCOCCOCCP(=O)(O)O)NC(=O)CCOCCOCCOCCOCCNC(=O)CCC(=O)N2Cc3ccccc3C#Cc3ccccc32)C(C)C)cc1)C(C)C` (some centres unmarked), the solubility in data set [1] (setting [4]) turned out to be 250 µg/mL (≈ 108 µM). The “CapB cleavage rate (%) at 4 hrs” value at Human liver Cathepsin B (Table 1D) stood at 50%. Moreover, the “pH Stability” value in data set [2] (setting [5]) was “Y (stable in pH7.4 and 8 buffer at RT for more than 3 days)”.

`CC(C)[C@H](NC(=O)CCOCCOCCOCCOCCNC(=O)CCC(=O)N1Cc2ccccc2C#Cc2ccccc21)C(=O)N[C@@H](C)C(=O)Nc1ccc2c(c1)[C@@]1(C)CCC[C@](C)(C(=O)NC(=O)[C@@]3(C)CCC[C@]4(C)c5cc(O)ccc5CC[C@@H]34)[C@@H]1CC2` [10b, 1-(4-{2-Azatricyclo[10.4.0.0^4,9]hexadeca-1(12),4(9),5,7,13,15-hexaen-10-yn-2-yl}-4-oxobutanamido)-N-[(1 S)-1-{[(1 S)-1-{[(4bS,8S,8aR)-8-{[(1 S,4aS,10aR)-6-hydroxy-1,4a-dimethyl-1,2,3,4,4a,9,10,10a-octahydrophenanthrene-1-carbonyl]carbamoyl}-4b,8-dimethyl-4b,5,6,7,8,8a,9,10-octahydrophenanthren-3-yl]carbamoyl}ethyl]carbamoyl}-2-methylpropyl]-3,6,9,12-tetraoxapentadecan-15-amide]: the solubility in data set [1] was < 100 µg/mL.

Regarding `CCCC1O[C@@H]2C[C@H]3[C@@H]4C[C@H](F)C5=CC(=O)C=C[C@]5(C)[C@@]4(F)[C@@H](O)C[C@]3(C)[C@]2(C(=O)CNC(=O)OCc2ccc(NC(=O)[C@H](CCCNC(N)=O)NC(=O)[C@@H](NC(=O)[C@@H](CCCCNC(=O)COC3CCCCCc4c3nnn4CCOCCOCCOCCOCCC(=O)NCCS(=O)(=O)O)NC(=O)CCOCCOCCOCCOCCNC(=O)CCC(=O)N3Cc4ccccc4C#Cc4ccccc43)C(C)C)cc2)O1` (some centres unmarked) [1e], the solubility in data set [1] (setting [3]) and in data set [1] (setting [4]) was > 10000 µg/mL each time. In addition, the “CapB cleavage rate (%) at 4 hrs” value on Human liver Cathepsin B (Table 1C) and on Human liver Cathepsin B (Table 1D) was 79.6% each time. Besides, the “pH Stability” value in data set [2] (setting [5]) was “Y (stable in pH7.4 and 8 buffer at RT for more than 3 days)”; in data set [2] (setting [6]), “Y (stable in pH7.4 or 8 buffer at room temperature for more than 3 days)”.

As for `CCCC1O[C@@H]2C[C@H]3[C@@H]4C[C@H](F)C5=CC(=O)C=C[C@]5(C)[C@@]4(F)[C@@H](O)C[C@]3(C)[C@]2(C(=O)CNC(=O)OCc2ccc(NC(=O)[C@H](CCCNC(N)=O)NC(=O)[C@@H](NC(=O)[C@@H](CCCCNC(=O)COC3CCCCCc4c3nnn4CCN(CC(=O)NCCS(=O)(=O)O)CC(=O)NCCS(=O)(=O)O)NC(=O)CCOCCOCCOCCOCCNC(=O)CCC(=O)N3Cc4ccccc4C#Cc4ccccc43)C(C)C)cc2)O1` (some centres unmarked) [1f], the “CapB cleavage rate (%) at 4 hrs” value at Human liver Cathepsin B (Table 1C) and on Human liver Cathepsin B (Table 1D) was 63.0% throughout.

`CC(C)[C@H](NC(=O)[C@@H](CCCCNC(=O)COC1CCCCCc2c1nnn2CCOCCOCCOCCOCCC(=O)NCCS(=O)(=O)O)NC(=O)CCOCCOCCOCCOCCNC(=O)CCC(=O)N1Cc2ccccc2C#Cc2ccccc21)C(=O)N[C@@H](C)C(=O)Nc1ccc2c(c1)[C@@]1(C)CCC[C@](C)(C(=O)NC(=O)[C@@]3(C)CCC[C@]4(C)c5cc(O)ccc5CC[C@@H]34)[C@@H]1CC2` (some centres unmarked) [1m]: the “CapB cleavage rate (%) at 4 hrs” value on Human liver Cathepsin B (Table 1C) and on Human liver Cathepsin B (Table 1D) was 44.2% throughout.

On to `CC[C@H](C)[C@@H]([C@@H](CC(=O)N1CCC[C@H]1[C@H](OC)[C@@H](C)C(=O)N[C@H](C)[C@@H](O)c1ccccc1)OC)N(C)C(=O)[C@@H](NC(=O)[C@H](C(C)C)N(C)C(=O)OCc1ccc(NC(=O)[C@H](CCCNC(N)=O)NC(=O)[C@@H](NC(=O)[C@@H](CCCCNC(=O)COC2CCCCCc3c2nnn3CCOCCOCCOCCOCCC(=O)NCC[N+](C)(C)C)NC(=O)CCOCCOCCOCCOCCNC(=O)CCC(=O)N2Cc3ccccc3C#Cc3ccccc32)C(C)C)cc1)C(C)C` (some centres unmarked) [Ib] ({DBCO-Suc-PEG4}-[dK](X4)V[Cit][PABC][NMeV]V[Dil][Dolaproine]-X1), for which, on Human liver Cathepsin B (Table 1D), the “CapB cleavage rate (%) at 4 hrs” value turned out to be 65%.
